From PubChem BioAssay (NCI) come the findings set out here.

Where “and” joins values, the source holds several entries; their conditions need not be identical. Identical values can stand only once.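 Method: 48-hour compound exposure of cells in 96-well plates, five concentrations, linear interpolation of endpoints. Abbreviation: GI50, concentration required for 50% inhibition of growth. TGI: concentration producing complete growth inhibition.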

In experiment [1] the test system is P388/ADR leukemia. As to the kind of experiment: NCI tumour cell line growth inhibition, 48 h.
Experiment [2] deals with SN12K1 renal. Description: NCI tumour cell line growth inhibition, 48 h.

In the case of `Cc1[nH]c(=O)[nH]c(=O)c1N(CCF)CCCl`, in experiment [1], the GI50 is 242 µM; the TGI is 557 µM and 1110 µM. Further, in experiment [2], the GI50 is 187 µM; the TGI is 513 µM and 703 µM and 657 µM.
